Reference: patent US6660741B2, “Asymmetric synthesis of (S,S,R)-(-)-actinonin and its analogs and uses therefor” (Sloan-Kettering Institute for Cancer Research, priority 2001, dated 2003)
Like-named read-outs stand apart in the source and are kept apart here.

Experiments:
[1] = test system: A2780; assay: XTT cytotoxicity assay, 5-day culture, A2780; type: cell-based; settings: Homo sapiens, 120 h, A2780, Ovarian Ca, 5 days, read-out: IC50 (μM ± SEM)
Protocol: (§1) Actinonin was assayed for cytotoxity in human ovarian carcinoma, prostate carcinoma, mammary carcinoma, head and neck squamous cell carcinoma (HNSSC), non-small-cell-lung-cancer adenocarcinoma (NSCLC-AdCa), and non-small-cell-lung-cancer squamous cells (NSCLC-SSC) (15). Actinonin was also tested against acute mylegenous leukemia (AML) cells.

[2] = test system: TSU-PR^1; assay: XTT cytotoxicity assay, 5-day culture, TSU-PR1; type: cell-based; settings: Homo sapiens, 120 h, TSU-PR1, Prostate Ca, 5 days, read-out: IC50 (μM ± SEM)
Protocol: as §1

[3] = test system: PC-3; assay: XTT cytotoxicity assay, 5-day culture, PC-3; type: cell-based; settings: Homo sapiens, 120 h, PC-3, Prostate Ca, 5 days, read-out: IC50 (μM ± SEM)
Protocol: as §1

[4] = test system: DU-145; assay: XTT cytotoxicity assay, 5-day culture, DU-145; type: cell-based; settings: Homo sapiens, 120 h, DU-145, Prostate Ca, 5 days, read-out: IC50 (μM ± SEM)
Protocol: as §1

[5] = test system: HL-60; assay: XTT cytotoxicity assay, 5-day culture, HL-60; type: cell-based; settings: Homo sapiens, 120 h, HL-60, PML, 5 days, read-out: IC50 (μM ± SEM)
Protocol: as §1

[6] = test system: MDA-MB468; assay: XTT cytotoxicity assay, 5-day culture, MDA-MB468; type: cell-based; settings: Homo sapiens, MDA-MB-468, 120 h, MDA-MB468, Mammary Ca, 5 days, read-out: IC50 (μM ± SEM)
Protocol: as §1

[7] = test system: SK-BRIII; assay: XTT cytotoxicity assay, 5-day culture, SK-BRIII; type: cell-based; settings: Homo sapiens, 120 h, Mammary Ca, 5 days, read-out: IC50 (μM ± SEM)
Protocol: as §1

[8] = test system: HT1080; assay: XTT cytotoxicity assay, 5-day culture, HT1080; type: cell-based; settings: Homo sapiens, HT-1080, 120 h, HT1080, HNSSC, 5 days, read-out: IC50 (μM ± SEM)
Protocol: as §1

[9] = test system: SK-LC-8; assay: XTT cytotoxicity assay, 5-day culture, SK-LC-8; type: cell-based; settings: Homo sapiens, 120 h, SK-LC-8, NSCLC-AdCa, 5 days, read-out: IC50 (μM ± SEM)
Protocol: as §1

[10] = test system: SK-LC-16; assay: XTT cytotoxicity assay, 5-day culture, SK-LC-16; type: cell-based; settings: Homo sapiens, 120 h, SK-LC-16, NSCLC-SSC, 5 days, read-out: IC50 (μM ± SEM)
Protocol: as §1

[11] = test system: all the cell lines tested; assay: Cytotoxicity of actinonin, summary over all cell lines tested; type: cell-based, human; settings: in the μM range
Protocol: as §1

[12] = test system: CWR22 human prostate tumor; settings: for Change in tumor Vol. (mm^3): initial 45 mm^3; for Ave. Tumor Diameter (mm ± SEM): initial tumor diameter 4.4
Protocol: Actinonin was also evaluated against the CWR22 human prostate tumor xenografted in nude mice (15).

[13] = test system: Daudi (B lineage Burkitt's lymphoma, CD13 negative) cells; assay: Inhibition of tritiated thymidine incorporation, 5 day, Daudi; type: cell-based; settings: Homo sapiens, 120 h, 5 days
Protocol: (§2) Actinonin was purchased from Sigma (St. Louis, Mo.). Biotinylated-Actinonin and all analogs were synthesized. Actinonin stock solution was 5 mg/ml in 10% ethanol. Biotinylated-actinonin and all other analogs were diluted in 10% DMSO to give stock solutions in the range of 1-20 mg/ml.
(§3) Daudi (B lineage Burkitt's lymphoma, CD13 negative) and HL60 (acute myeloid leukemia, CD13 positive) cells were maintained in culture using RPMI 1640 supplemented with 10% heat-inactivated FBS (Omega Scientific, Inc., Tarzana, Calif.) and 1% L-glutamine (Gibco/Invitrogen, Carlsbad, Calif.) at 37° C. in a humidified atmosphere of 5% CO2. Cell viability was higher than 90%, and cells were free of mycoplasma contamination.
(§4) An aliquot of 200 ul of cells (10,000 cells/well) was washed and incubated at 37° C. in 96-well plates in the presence or absence of actinonin/analogs. Serial dilutions were made in complete media. After 5 days of incubation, 50 ul of 10 uCi/mL tritiated thymidine (PerkinElmer, Boston, Mass.) was added to each well and allowed to incorporate for 5 hours. Plates were frozen at −80° C. overnight and cells were harvested onto filtermats (Wallac, Finland) using a semi-automatic harvester (Skatron, Sterling, Va.). Filtermats were counted in a 1205 Betaplate™ liquid scintillation counter (Wallac, Finland). The reference numbers refer to those analogs disclosed in Example 6. Compounds 35, 42, 48, 52, 53, and 56 are effective at inhibiting cell growth.

[14] = test system: HL60 (acute myeloid leukemia, CD13 positive) cells; assay: Inhibition of tritiated thymidine incorporation, 5 day, HL60; type: cell-based; settings: Homo sapiens, HL-60, 120 h, HL60, 5 days
Protocol: as §2, §3, §4

[15] = test system: tumor cell lines; settings: cited from earlier work
[16] = test system: human leukemia and lymphoma cells; settings: cited from earlier work
[17] = test system: AKR leukemia; settings: cited from earlier work

Work on `CCCCC[C@H](CC(=O)NO)C(=O)N[C@H](C(=O)N1CCC[C@H]1CO)C(C)C` [Actinonin, (S,S,R)-(−)-Actinonin] yielded an IC50 [1] of 4.8 ± 1 µM, an IC50 [2] of 9.1 ± 1.5 µM and an IC50 [3] of 10 ± 1 µM. It also gave an IC50 [4] of 17 µM, an IC50 [5] of 6.8 ± 1 µM and an IC50 [6] of 7.1 ± 1 µM. It also gave an IC50 [7] of 7.9 ± 1 µM, an IC50 [8] of 11 ± 2 µM and an IC50 [9] of 14 ± 2 µM. For the same molecule, the IC50 [10] was 12 ± 2 µM, the “cytotoxicity against all the cell lines tested” value [11] was “remarkably cytotoxic” and the “Inhibition T/C %” value ([12]; 300 mg/kg ip) was 97%. The “Change in tumor Vol. (mm^3)” value ([12]; 300 mg/kg ip) was “+36 mm^3”, the “Ave. Tumor Diameter (mm ± SEM)” value ([12]; 300 mg/kg ip) was 5.4 ± 1 mm and the “Inhibition T/C %” value ([12]; 600 mg/kg ip) was 88%. The “Change in tumor Vol. (mm^3)” value ([12]; 600 mg/kg ip) was “+142 mm^3”, the “Ave. Tumor Diameter (mm ± SEM)” value ([12]; 600 mg/kg ip) was 7.1 ± 2 mm and the tumor growth inhibition ([12]; at a dose slightly below the maximum tolerated dose (MTD) for the mouse) was “excellent tumor growth inhibition”. The IC50 ([13]; read-out: Daudi IC50 (uM), 5 day thymidine incorporation) was 6.7 µM, the IC50 ([13]; read-out: Daudi IC50 (ug/mL), 5 day thymidine incorporation) was 2.6 µg/mL and the IC50 ([14]; read-out: HL60 IC50 (uM), 5 day thymidine incorporation) was 10.6 µM. For the same molecule, the IC50 ([14]; read-out: HL60 IC50 (ug/mL), 5 day thymidine incorporation) was 4.1 µg/mL, the “cytotoxicity towards tumor cell lines in vitro” value [15] was “exhibits cytotoxicity” and the “cell cycle arrest and apoptosis” value [16] was “induces GI arrest and apoptosis”. For the same molecule, the “treatment of AKR leukemia” value ([17]; AKR mice) was “treats AKR leukemia” and the “toxicity in AKR mice” value ([17]; mouse, in vivo) was “minimal toxicity”.
